Active and inactive are the calls of the source. The rule behind the calls is not given here.
Tests used:
[1] = Drug recovery in male Sprague-Dawley rat feces at 45 mg/kg, po measured upto 48 hrs by UHPLC analysis; type: ADME, organism-based; conditions: faeces, read-out: Drug recovery
[2] = Drug recovery in female Sprague-Dawley rat bile duct at 45 mg/kg, po measured upto 72 hrs by UHPLC analysis; type: ADME, organism-based; conditions: read-out: Drug recovery
[3] = Cmax in BALB/c nude mouse at 0.5 mg/kg, po measured at 6 hrs; type: ADME, organism-based; conditions: in vivo
[4] = Cmax in C57BL/6J mouse eye at 0.5 mg/kg, po measured at 168 hrs by QWBA analysis; type: ADME, organism-based; conditions: in vivo
[5] = Cmax in C57BL/6J mouse uveal tract at 0.5 mg/kg, po measured at 168 hrs by QWBA analysis; type: ADME, organism-based; conditions: in vivo
[6] = Cmax in C57BL/6J mouse harderian gland at 0.5 mg/kg, po measured at 48 hrs by QWBA analysis; type: ADME, organism-based; conditions: in vivo
[7] = Drug recovery in Long-Evans rat eye at 45 mg/kg, po measured for 72 hrs by UHPLC analysis; type: ADME, organism-based; conditions: in vivo
[8] = Ratio of drug exposure in tumor to plasma of BALB/c mouse at 0.5 mg/kg, po; type: ADME, organism-based; conditions: tumor and plasma
[9] = Drug recovery in male Sprague-Dawley rat bile duct at 45 mg/kg, po measured upto 72 hrs by UHPLC analysis; type: ADME, organism-based; conditions: read-out: Drug recovery
[10] = Drug recovery in female Sprague-Dawley rat urine at 45 mg/kg, po measured upto 96 hrs by UHPLC analysis; type: ADME, organism-based; conditions: read-out: Drug recovery
[11] = Drug recovery in male Sprague-Dawley rat urine at 45 mg/kg, po measured upto 96 hrs by UHPLC analysis; type: ADME, organism-based; conditions: read-out: Drug recovery
[12] = Drug recovery in female Sprague-Dawley rat feces at 45 mg/kg, po measured upto 48 hrs by UHPLC analysis; type: ADME, organism-based; conditions: faeces, read-out: Drug recovery
[13] = Drug metabolism in Long-Evans rat at 45 mg/kg, po by UHPLC-HR-MS analysis; type: ADME, organism-based; conditions: in vivo
[14] = AUC (0 to t ) in C57BL/6J mouse uveal tract at 0.5 mg/kg, po measured at 168 hrs by QWBA analysis; type: ADME, organism-based; conditions: in vivo
[15] = Drug distribution in BALB/c mouse kidney at 0.5 mg/kg, po by QWBA analysis; type: ADME, organism-based; conditions: in vivo
[16] = Ratio of drug exposure in pigmented skin to plasma of C57BL/6J mouse at 0.5 mg/kg, po; type: ADME, organism-based; conditions: pigmented skin and plasma
[17] = Drug distribution in BALB/c mouse harderian gland at 0.5 mg/kg, po by QWBA analysis; type: ADME, organism-based; conditions: in vivo
[18] = Cmax in BALB/c nude mouse at 0.5 mg/kg, po measured at 48 hrs; type: ADME, organism-based; conditions: in vivo
[19] = Drug distribution in BALB/c mouse digestive tract at 0.5 mg/kg, po by QWBA analysis; type: ADME, organism-based; conditions: in vivo
[20] = Drug distribution in BALB/c mouse liver at 0.5 mg/kg, po by QWBA analysis; type: ADME, organism-based; conditions: in vivo
[21] = AUC (0 to t) in Sprague-Dawley rat at 45 mg/kg, po by LSC analysis; type: ADME, organism-based; conditions: in vivo
[22] = Tmax in Sprague-Dawley rat at 22.5 mg/kg, po by LSC analysis; type: ADME, organism-based; conditions: in vivo
[23] = Stability in rat plasma assessed as drug degradation measured after 2 hrs by LC-MS/MS analysis; type: ADME, cell-free
[24] = AUC (0 to infinity) in Sprague-Dawley rat at 22.5 mg/kg, po with free access to food and water before administration by LSC analysis; type: ADME, organism-based; conditions: in vivo
Melanin [25] = assay: Binding affinity to Melanin (unknown origin) assessed as binding ratio at 10 microg/ml measured for 2 hrs; conditions: dose 10.0 µg/ml
[26] = Tmax in Sprague-Dawley rat at 45 mg/kg, po by LSC analysis; type: ADME, organism-based; conditions: in vivo
[27] = Cmax in Sprague-Dawley rat at 22.5 mg/kg, po with free access to food and water before administration by LSC analysis; type: ADME, organism-based; conditions: in vivo
[28] = Cmax in Sprague-Dawley rat at 22.5 mg/kg, po by LSC analysis; type: ADME, organism-based; conditions: in vivo
[29] = Stability in rat plasma measured after 2 hrs by LC-MS/MS analysis; type: ADME, cell-free
[30] = AUC (0 to t) in Sprague-Dawley rat at 22.5 mg/kg, po by LSC analysis; type: ADME, organism-based; conditions: in vivo
[31] = Stability in rat plasma assessed as drug hydrolysis measured after 2 hrs by LC-MS/MS analysis; type: ADME, cell-free
Melanin [32] = assay: Binding affinity to Melanin (unknown origin) assessed as binding ratio at 0.1 microg/ml measured for 2 hrs; conditions: dose 0.1 µg/ml
[33] = Volume of distribution at steady state in Sprague-Dawley rat at 22.5 mg/kg, iv by LSC analysis; type: ADME, organism-based; conditions: in vivo
[34] = Half life in Sprague-Dawley rat at 45 mg/kg, po by LSC analysis; type: ADME, organism-based; conditions: in vivo
[35] = Drug recovery in Sprague-Dawley rat feces at 45 mg/kg, po measured over 168 hrs by UHPLC analysis; type: ADME, organism-based; conditions: faeces, read-out: Drug recovery
[36] = AUC (0 to infinity) in Sprague-Dawley rat at 22.5 mg/kg, po by LSC analysis; type: ADME, organism-based; conditions: in vivo
DU-145 = assay: Antitumor activity against human DU-145 cells xenografted in BALB/c nude mouse assessed as reduction in tumor size at 0.5 mg/kg measured daily for 14 days; type: functional, organism-based; conditions: time 14.0 day
[37] = Oral bioavailability in Sprague-Dawley rat at 45 mg/kg by LSC analysis; type: ADME, organism-based; conditions: in vivo
[38] = Tmax in Sprague-Dawley rat at 22.5 mg/kg, po with free access to food and water before administration by LSC analysis; type: ADME, organism-based; conditions: in vivo
[39] = Half life in Sprague-Dawley rat at 22.5 mg/kg, po by LSC analysis; type: ADME, organism-based; conditions: in vivo
[40] = AUC (0 to infinity) in Sprague-Dawley rat at 45 mg/kg, po by LSC analysis; type: ADME, organism-based; conditions: in vivo
[41] = Oral bioavailability in Sprague-Dawley rat at 22.5 mg/kg by LSC analysis; type: ADME, organism-based; conditions: in vivo
[42] = Stability in phosphate buffer at 1 uM; type: physicochemical
[43] = AUC (0 to t) in Sprague-Dawley rat at 22.5 mg/kg, po with free access to food and water before administration by LSC analysis; type: ADME, organism-based; conditions: in vivo
[44] = Drug recovery in Sprague-Dawley rat bile duct at 45 mg/kg, po measured over 72 hrs by UHPLC analysis; type: ADME, organism-based; conditions: read-out: Drug recovery
[45] = Cmax in Sprague-Dawley rat at 45 mg/kg, po by LSC analysis; type: ADME, organism-based; conditions: in vivo
Melanin [46] = assay: Binding affinity to Melanin (unknown origin) assessed as binding ratio at 1 microg/ml measured for 2 hrs; conditions: dose 1.0 µg/ml
[47] = Oral bioavailability in Sprague-Dawley rat at 22.5 mg/kg with free access to food and water before administration by LSC analysis; type: ADME, organism-based; conditions: in vivo
[48] = Drug recovery in Sprague-Dawley rat urine at 45 mg/kg, po measured over 168 hrs by UHPLC analysis; type: ADME, organism-based; conditions: read-out: Drug recovery
[49] = Half life in Sprague-Dawley rat at 22.5 mg/kg, po with free access to food and water before administration by LSC analysis; type: ADME, organism-based; conditions: in vivo

Structure (SMILES): N#Cc1ccc(O[C@H]2CC[C@H](NC(=O)c3ccc(N4CCC(CN5CCN(c6cc7c(cc6F)[14C](=O)N(C6CCC(=O)NC6=O)[14C]7=O)CC5)CC4)nn3)CC2)cc1Cl (stereo not given in full)
- dose excreted at 48 h [1]: 92%
- dose excreted at 72 h [2]: 4.49%
- Cmax [3]: 3165 ngequiv/g
- Cmax [4]: 3185 ngequiv/g
- Cmax [5]: 9621 ngequiv/g
- Cmax [6]: 2950 ngequiv/g
- Drug recovery [7]: 55.17%
- Kp [8]: 3.99
- dose excreted at 72 h [9]: 4.55%
- dose excreted at 96 h [10]: 4.25%
- dose excreted at 96 h [11]: 2.51%
- dose excreted at 48 h [12]: 88%
- Drug metabolism [13]: Metabolite_Detected
- AUCt [14]: 2717032 ng·h/g
- Drug uptake [15]: Active
- Kp [16]: 1.52
- Drug uptake [17]: Active
- Cmax [18]: 944 ngequiv/g
- Drug uptake [19]: Active
- Drug uptake [20]: Active

Structure (SMILES): N#Cc1ccc(O[C@H]2CC[C@H](NC(=O)c3ccc(N4CCC(CN5CCN(c6cc7c(cc6F)C(=O)N(C6CCC(=O)NC6=O)C7=O)CC5)CC4)nn3)CC2)cc1Cl (stereo not given in full) [BAVDEGALUTAMIDE]
- AUCt [21]: 12345 ng·h/mL
- Tmax [22]: 7 h
- Stability [23]: Stable
- AUC [24]: 23274 ng·h/mL
- inhibition (Melanin [25]): 82.2%
- Tmax [26]: 5.5 h
- Cmax [27]: 842 ng/mL
- Cmax [28]: 448 ng/mL
- Stability [29]: Unstable
- AUCt [30]: 11740 ng·h/mL
- Stability [31]: Stable
- inhibition (Melanin [32]): 91%
- Vdss [33]: 2.04 L/kg
- t1/2 [34]: 15.9 h
- dose excreted at 168 h [35]: 90%
- AUC [36]: 11881 ng·h/mL
- Activity (DU-145): Active
- F [37]: 5.62%
- Tmax [38]: 8.5 h
- t1/2 [39]: 15.4 h
- AUC [40]: 12515 ng·h/mL
- F [41]: 10.75%
- Stability [42]: Stable
- AUCt [43]: 23022 ng·h/mL
- dose excreted at 72 h [44]: 4.54%
- Cmax [45]: 490 ng/mL
- inhibition (Melanin [46]): 90.1%
- F [47]: 20.97%
- dose excreted at 168 h [48]: 3.38%
- t1/2 [49]: 14.8 h
